# Assay results published in US9333209B2, “Compositions for increasing hair growth” (The Board of Trustees of the Leland Stanford Junior …, priority 2012, dated 2016).
# Entries after “also recorded” stand apart in the source; their conditions may differ.
# B1: Fstl1 protein: secreted glycoprotein that inhibits BMP signaling; deduced 308-amino acid protein with FS module (protein, UniProt Q12841 21-308, looked up)
# Follistatin-related protein 1: EEELRSKSKICANVFCGAGRECAVTEKGEPTCLCIEQCKPHKRPVCGSNGKTYLNHCELHRDACLTGSKIQVDYDGHCKEKKSVSPSASPVVCYQSNRDELRRRIIQWLEAEIIPDGWFSKGSNYSEILDKYFKNFDNGDSRLDSSEFLKFVEQNETAINITTYPDQENNKLLRGLCVDALIELSDENADWKLSFQEFLKCLNPSFNPPEKKCALEDETYADGAETEVDCNRCVCACGNWVCTAMTCDGKNQKGAQTQTEEEMTRYVQELQKHQETAEKTKRVSTKEI
# Key:
# [1] = test system: murine hair follicle cycling; conditions: small molecule screen of calcium blockers; mice
# Description: To understand how calcium signaling controls hair follicle stem cell regulation, a screen for small molecules that affect murine hair follicle cycling was carried out. The compounds included a survey of different classes of cell permeable slow and fast channel blockers applied to the skin.
# We performed a small molecule screen to find out if any of the available calcium blockers affected hair follicle cycling.
# [2] = test system: bulge stem cells of Cav fx/-; K15 CrePR mice; assay: Verapamil treatment of RU486 treated Cav fx/-; K15 CrePR mice; type: in vivo, mouse
# Text: Loss of function mutation of this channel entails a removal of exon 13 and 14 of Cav 1.2 gene (FIG. 1). […] Cav fx/- mice were crossed to K15CrePR animals to remove the pore region of the channel in the bulge stem cells. RU486 treatment of Cav fx/-; K15CrePR allowed the removal of the pore region. […] Loss of function mutation, which represents the closed state of this channel, results in the same phenotype as the open state of the channel.
# bulge stem cells = assay: microarray analysis and RT-PCR on Verapamil treated bulge cells; type: in vivo, mouse
# Text: Out of those, the gene Follistatin like 1 (Fstl1) stood out. Fstl1 is a secreted glycoprotein that inhibits BMP signaling in lung and ureter development.
# There are other BMP inhibitors that are known to affect hair cycling.
# [3] = test system: hair follicles of wild type mice; assay: Verapamil treatment of wild type mice in first telogen
# hair cycling = assay: subcutaneous injection of Fstl1 protein soaked beads, effect on hair cycling; type: in vivo, mouse; conditions: half dose (2 μg) soaked beads, Day 21-22 mice
# Description: To understand the effect of Fstl1 on hair cycling, we subcutaneously injected two different doses of Fstl1 protein (4 μg and 2 μg) soaked beads to Day 21-22 mice. In 2 to 4 days, these mice went into anagen (n=8, FIG. 7D).
# [4] = treated bulge stem cells vs control bulge stem cells
molecule,measurement,setting,value
"COc1ccc([C@@H]2Sc3ccccc3N(CCN(C)C)C(=O)[C@@H]2OC(C)=O)cc1 [Diltiazem, diltiazem]",entry to anagen,[1],showed the same results; also recorded: precocious entry into anagen
"COc1ccc(CCN(C)CCCC(C#N)(c2ccc(OC)c(OC)c2)C(C)C)cc1OC (stereo not shown) [Verapamil, verapamil]",anagen entry later than wild type littermates,"[2]; drug treated Cav fx/-, K15 CrePR mutant mice, RU486 treated",2 to 4 days
same,H and E staining of skin sections,[2]; treated mice vs control skin with telogen hair follicles,anagen hair follicles
same,Bambi expression,bulge stem cells; treated bulge stem cells,downregulated
same,Noggin expression,bulge stem cells; treated bulge stem cells,downregulated
same,Fstl1 expression (RT-PCR),bulge stem cells; [4],upregulated
same,Tmeff1 expression,bulge stem cells; [4],does not change much
same,H and E staining of skin sections,[3]; drug treated wild type mice vs telogen hair follicles in control mice,anagen hair follicles
same,early anagen (advance of anagen entry),"[3]; wild type mice treated between days 21 and 28 (first telogen), n=8",5 to 7 days
B1,entry to anagen,hair cycling,only partial entry to anagen
